{"source": "patent US20110200685A1", "about": "“Methods and compositions for the reduction of pathogenic microorganisms from meat and poultry carcasses, trim and offal” (priority 2010, published 2011)", "key": {"[1]": {"system": "E. coli O157:H7", "experiment": "Microbiological quality of wash water after spraying inoculated beef and pork (Example 9)", "assay_type": "cell-based", "conditions": "for log10 (remaining): 30 second spray 50 psi; for log10 reduction: vs city water control", "description": "(§1) The microbiological efficacy of the HOBr derived from NaOCl/HBr and the HOBr from DBDMH were compared against a culture of E. coli O157:H7 bacteria that was sprayed onto the surface of beef and pork meat.\n(§2) Meat processing facilities commonly treat beef and pork with antimicrobial solutions for about 30 seconds by spraying the beef and pork carcasses and trim with the solution in a spray cabinet. To simulate this process, a small spray cabinet was constructed for the study. A 30-gallon, open-headed drum was equipped with three ½ inch PVC section of pipe that were vertically oriented and positioned 120 degrees apart. Each section of pipe had two spay nozzles four inches apart positioned to form a spray zone in the center of the drum. An air-assisted diaphragm pump was used to deliver the test solution into the three ½ inch PVC pipe sections and through the nozzles. A regulator on the air pump was used to adjust the pressure of the spray as necessary.\n(§3) A stock solution of a field strain of E. coli O157:H7 was incubated at 35° C. for four days in Sigma Nutrient Broth for microbial culture. Three daily, consecutive transfers of the inoculums were made to ensure that a sufficient concentration of E. coli O157:H7 was available for the study. The broth and bacteria mixture was then centrifuged leaving the E. coli O157:H7 to be re-suspended in approximately 500 ml Butterfield's Buffer. The E. coli O157:H7 buffer solution was serially diluted and plated on 3M Petrifilm E. coli plates, incubated at 35° C. for 48 hours where it was determined that the E. coli O157:H7 population was 6.76×10^7 CFU/ml or log10 7.83.\n(§4) In summary: • Beef— • a) Control: Three beef pieces—city water • b) DBDMH: Three beef pieces—288 ppm Br2 • c) NaOCl/HBr: Three beef pieces—279 ppm Br2 • Pork— • a) Control: Three pork pieces—city water • b) DBDMH: Three pork pieces—288 ppm Br2 • c) NaOCl/HBr: Three pork pieces—279 ppm Br2\n(§5) During the 30 second spray, a piece of meat was held by a hook and moved up and down in the spray zone of the spray cabinet with rotation to ensure even distribution of the solution over the surface. The spray pressure was set at 50 psi.\nImmediately after each piece was sprayed, a sample of the wash solution was taken from the bottom of the spray cabinet drum for microbial analysis. The solutions were plated on 3M Petrifilm E. coli plates and incubated at 35° C. for 48 hours."}, "[2]": {"system": "Salmonella typhimurium (ATCC 14028)", "experiment": "Surface-associated bacteria remaining on chicken after 30 second spray (Example 10)", "assay_type": "cell-based", "conditions": "chicken halves", "description": "In the processing of poultry, birds that are deemed by the USDA inspectors to have undesirable levels of fecal contamination are directed to a dedicated cabinet where they are sprayed with an antimicrobial solution. If the fecal contamination were not removed, birds harboring the pathogenic Salmonella organism would enter the human food chain. Therefore, the microbiological efficacy of the HOBr derived from NaOCl/HBr and the HOBr from DBDMH were compared on chicken inoculated with a culture of Salmonella typhimurium (ATCC 14028) bacteria.\nA stock solution of Salmonella typhimurium (ATCC 14028) was incubated at 35° C. for four days in Sigma Nutrient Broth for microbial culture. Three daily, consecutive transfers of the inoculums were made to ensure that a sufficient concentration of Salmonella typhimurium was available for the study. The broth and bacteria mixture was then centrifuged leaving the Salmonella typhimurium to be re-suspended in approximately 500 ml Butterfield's Buffer. The Salmonella buffer solution was serially diluted and plated on 3M Petrifilm Enterobacteriaceae Plates, incubated at 35° C. for 24 hours where it was determined that the Salmonella typhimurium population was 2.34×10^8 or log10 8.37 CFU/ml (colony forming units per milliliter).\nThree whole, uncooked chickens were purchased from a local grocer. The average weight of the whole chickens was 5.30 pounds. The organs were removed from each chicken and subsequently, each chicken was cut evenly in half down the back leaving six equal halves which contained a back, breast, thigh and leg. The chicken halves were then patted dry with a paper towel, sprayed liberally on all sides and marinated with Salmonella typhimurium—Butterfield's Buffer solution inoculums for two hours, turning occasionally.\nThe six chicken pieces were introduced to the spray cabinet used in Example 9. […] The concentration of HOBr was measured prior to spraying the meat pieces by using a HACH DR/700 Colorimeter and HACH 10 ml DPD Total Chlorine pillow packets. […]"}, "[3]": {"experiment": "Octanol-Water Partition Coefficient of HOBr (Example 13)", "assay_type": "physicochemical", "experimental": "In order to quantify the lipophilicity of HOBr solutions prepared from NaOCl-activated HBr, the Octanol-Water Partition Coefficient was determined.\nThe Octanol-Water Partition Coefficient is defined as:\nPow=Octanol-Water Partition Coefficient. Commonly the logarithm of this number is reported as Log Pow\nA high concentration of a HOBr solution was prepared by introducing sufficient NaOCl to activate 3.34 ml 48% HBr in 900 ml RO water until the pH was 7.23. By iodometric titration, the solution was determined to contain 5625 ppm as Br2. The slightly yellow activated solution (25 ml) was poured into an Erlenmeyer flask containing octanol (25 ml). This was mixed for two minutes using a high-speed magnetic stirrer after which the two phases were allowed to separate. All of the yellow color had phase-separated into the top octanol layer. […] The Pow was calculated to be 1.97. This was repeated for lower concentrations of HOBr by preparing a stock solution of 300 ppm as Br2 using 0.2 ml 48% HBr in 900 ml RO water and adding sufficient NaOCl bleach until the pH was 7.33. From the 300 ppm as Br2 stock solution, solutions of 200 and 100 ppm as Br2 were prepared.\nA saturated solution of DBDMH was prepared by slurrying DBDMH (1 g) powder in RO water (99 g) and stirring rapidly for 20 minutes. Undissolved solids were removed by gravity filtration. By iodometric titration, the solution was determined to contain 1170 ppm as Br2. The DBDMH solution (25 ml) was poured into an Erlenmeyer flask containing octanol (25 ml). This was mixed for two minutes using a high-speed magnetic stirrer after which the two phases were allowed to separate. […] The Pow was calculated to be 0.808. The 1170 ppm as Br2 stock solution was then used to prepare solution of 300, 200 and 100 ppm as Br2 solutions."}, "[4]": {"system": "E. coli O157:H7", "experiment": "Surface-associated bacteria remaining on beef and pork after 30 second spray (Example 9)", "assay_type": "cell-based", "conditions": "for log10 (remaining): 30 second spray 50 psi, DBDMH 288 ppm Br2, NaOCl/HBr 279 ppm Br2; for % reduction / log10 reduction: vs city water control", "description": "as §1, §2, §3\nThe type of beef used was chuck roast, which was cut into nine equal pieces. The average weight of beef piece used in this portion of the study was 257.1 g. Nine boneless pork chops of average weight of pork 142.9 g were used.\nas §4, §5\nAfter spraying, each meat piece was gently shaken three times to remove excess liquid and returned to a new, sterile bag containing 200 g of city water. The bag was sealed and then vigorously agitated manually for one minute to dislodge any viable surface-associated bacteria from the meat and into the aqueous phase. The water was then plated using 3M Petrifilm E. coli plates and incubated at 35° C. for 48 hours, after which the plates were enumerated. All plating for E. coli was performed within five minutes of completing the spray."}, "[5]": {"experiment": "Relative stability (decay) of HOBr from NaOCl-activated HBr vs DBDMH, 600 ppm as bromine (Example 4)", "assay_type": "physicochemical", "conditions": "HOBr 600 ppm as bromine; stored in the dark; 70-75° F.", "experimental": "The relative stability of HOBr derived from NaOCl-activated HBr and HOBr derived from DBDMH was compared side-by-side. A solution of HOBr (600 ppm as bromine) was used in the comparison because this is the amount of bromine that typically exits the commercial DBDMH feeders when the solid product is dissolved. The activity of the solutions was measured using the DPD Total chlorine colorimetric method. Solutions were stored in the dark to prevent photodegradation due to UV light exposure. The temperature ranged from 70-75° F. for the duration of the test.\nThe HOBr decay profiles for the 600 ppm (as bromine) solutions derived from NaOCl-activated HBr solution and DBDMH solution are plotted in FIG. 2.\nGraphs of ln(Co/Ct) where Co is the initial concentration of HOBr and Ct is the concentration at day t were close to straight lines for both the DBDMH and NaOCl-activated HBr derived solutions. (the regression analysis correlation coefficient, R^2 values were close to 1). The R^2 value for the DBDMH and the NaOCl-activated HBr solutions were 0.9251 and 0.9302, respectively. […]\nThe half-lives of HOBr from the HBr-activated solution and the DBDMH solution were calculated by […]—the natural logarithm (ln) of 2."}, "[6]": {"system": "Salmonella typhimurium (ATCC 14028)", "experiment": "Surface-associated bacteria remaining on chicken after 40 minute chilled immersion (Example 11)", "assay_type": "cell-based", "conditions": "chicken halves", "experimental": "Most poultry processing facilities cool the product by submerging it for 30-60 minutes in a chiller tank containing an antimicrobial chemical. The chilled water solution is typically around 35° F. (Food Contact Notification, nos. 334 and 453). Therefore, the microbiological efficacy of the HOBr derived from NaOCl-activated HBr and the HOBr from DBDMH were compared by immersing chickens inoculated with a culture of Salmonella typhimurium (ATCC 14028) bacteria. An inoculum was prepared in the same manner as described in Example 10. This time the inoculum yielded a Salmonella typhimurium population of 3.78×10^8 CFU/ml, or log10 8.58. This was then sprayed onto both sides of the chicken halves and left to marinate for two hours. The average weight of the whole chicken used in this portion of the study was 5.20 lbs.\nEach test solution was made with chilled water immediately prior to use. For each test solution and the control, two chicken halves were placed in a plastic storage bin containing one quart of test solution. A sterilized ice pack was placed in the bin to accompany the chicken and maintain water temperature. The chicken halves were allowed to sit in the chilled solution for 40 minutes at 35° F., and were turned every five minutes while gently agitating the storage bin. All containers were covered using aluminum foil to prevent degradation of the active ingredients by UV light.\nIn summary: • a) Control: Two chicken halves—city water • b) DBDMH: Two chicken halves—95 ppm as total bromine • c) NaOCl/HBr: Two chicken halves—100 ppm as total bromine\nAfter spraying, each chicken half was gently shaken three times to remove excess liquid and returned to a new, sterile bag. 300 g of city water was introduced to the bag and the bag was tumbled vigorously for one minute to dislodge viable surface-associated Salmonella bacteria. The water left at the bottom of the bag was plated using 3M Petrifilm Enterobacteriaceae Plates and incubated at 35° C. for 24 hours, upon which the plates were enumerated."}, "[7]": {"conditions": "30 second spray, vs city water control"}, "[8]": {"conditions": "Concentration HOBr (as Br2) 100"}, "[9]": {"conditions": "Concentration HOBr (as Br2) 200"}, "[10]": {"conditions": "Concentration HOBr (as Br2) 300"}, "[11]": {"conditions": "Concentration HOBr (as Br2) 1170 (saturated solution)"}, "[12]": {"conditions": "immersion 40 minutes, vs city water control"}}, "note": "“And” between values parts separate entries of the source, which are not always exact repeats. Equal entries are not always repeated."}
{"smiles": "CC1(C)C(=O)N(Br)C(=O)N1Br", "note": "[DBDMH, 1,3-dibromo-5,5-dimethylhydantoin]", "values": [{"measurement": "log10 (remaining)", "setting": "[1]; beef, DBDMH 288 ppm Br2, NaOCl/HBr 279 ppm Br2, control 5.01", "result": 0.48, "unit": "log10"}, {"measurement": "log10 reduction", "setting": "[1]; beef", "result": 4.53, "unit": "log10"}, {"measurement": "log10 (remaining)", "setting": "[1]; pork, DBDMH 288 ppm Br2, NaOCl/HBr 279 ppm Br2, control 5.18", "result": 0.99, "unit": "log10"}, {"measurement": "log10 reduction", "setting": "[1]; pork", "result": 4.19, "unit": "log10"}, {"measurement": "log10 (remaining)", "setting": "[2]; 30 second spray 40 psi, DBDMH 295 ppm, NaOCl/HBr 275 ppm as total bromine, control 6.15", "result": 5.85, "unit": "log10 CFU/ml"}, {"measurement": "% reduction", "setting": "[2]; [7]", "result": 49.88, "unit": "%"}, {"measurement": "log10 reduction", "setting": "[2]; [7]", "result": 0.30, "unit": "log10 CFU/ml"}, {"measurement": "Concentration in aqueous phase after partitioning into octanol", "setting": "[3]; [8]", "result": 19.125, "unit": "ppm as Br2"}, {"measurement": "Pow HOBr", "setting": "[3]; [8]", "result": 0.645}, {"measurement": "Concentration in aqueous phase after partitioning into octanol", "setting": "[3]; [9]", "result": 34.99, "unit": "ppm as Br2"}, {"measurement": "Pow HOBr", "setting": "[3]; [9]", "result": 0.719}, {"measurement": "Concentration in aqueous phase after partitioning into octanol", "setting": "[3]; [10]", "result": 50.74, "unit": "ppm as Br2"}, {"measurement": "Pow HOBr", "setting": "[3]; [10]", "result": 0.731}, {"measurement": "Concentration in aqueous phase after partitioning into octanol", "setting": "[3]; [11]", "result": "159.7 ppm as Br2 and 157.5 ppm as Br2"}, {"measurement": "Pow HOBr", "setting": "[3]; [11]", "result": 0.808}, {"measurement": "log10 (remaining)", "setting": "[4]; on beef, control 6.15", "result": 5.56, "unit": "log10"}, {"measurement": "% reduction", "setting": "[4]; on beef", "result": 74.30, "unit": "%"}, {"measurement": "log10 reduction", "setting": "[4]; on beef", "result": 0.59, "unit": "log10"}, {"measurement": "log10 (remaining)", "setting": "[4]; on pork, control 6.43", "result": 5.71, "unit": "log10"}, {"measurement": "% reduction", "setting": "[4]; on pork", "result": 80.95, "unit": "%"}, {"measurement": "log10 reduction", "setting": "[4]; on pork", "result": 0.72, "unit": "log10"}, {"measurement": "rate constant of HOBr decay", "setting": "[5]", "result": 0.051, "unit": "day⁻¹"}, {"measurement": "log10 (remaining)", "setting": "[6]; immersion 40 minutes at 35° F., DBDMH 95 ppm, NaOCl/HBr 100 ppm as total bromine, control 6.54", "result": 6.25, "unit": "log10 CFU/ml"}, {"measurement": "% reduction", "setting": "[6]; [12]", "result": 48.71, "unit": "%"}, {"measurement": "log10 reduction", "setting": "[6]; [12]", "result": 0.29, "unit": "log10 CFU/ml"}]}
